According to paper PMC12040169 (PLOS Biology, 2025):

Assay: in vitro
Settings: human, hela cells, % viability

SMILES | viability at 28.5 h, 10 µM [%] | viability at 28.5 h, 10 µM (bulk resorufin, single well) [%]
Fc1ccccc1-c1cn2ccnc2c(N2CCOCC2)n1 [CBK036584] | 105 | 
CCC1CN(C(=O)Cn2cnc3ccc(F)cc3c2=O)CCO1 (centres unmarked) [CBK305795] | 92.4 | 
CCn1nc(C(=O)Nc2ccccc2-c2ccc(OC)cc2)c2ccccc2c1=O [CBK285864] | 94.1 | 
CCN(CC(=O)NC(C)C)Cc1csc(-c2ccc(F)cc2)n1 [CBK305849] | 117 | 
FC(F)(F)c1ccnc(SCc2ccc(Cl)c(Cl)c2)n1 [CBK103723] | 85.6 | 
O=C1CC(c2ccccc2)CC(=O)N1c1nnn[nH]1 [CBK291154] | 85.5 | 
O=C(c1cccc2[nH]ccc12)N1CCCC2(CCN(Cc3ccccc3)C2)C1 (centres unmarked) [CBK136887] | 93.5 | 
CCN(CC)C(=O)CN1C2CCC1CC(O)(c1ccco1)C2 (centres unmarked) [CBK284094] | 106 | 
O=C(O)c1cccc2c1C(=O)N(c1ccccc1)C2 [CBK101054] | 91.4 | 
Nc1ncnc(NCCCN2CCOCC2)c1[N+](=O)[O-] [CBK267267] | 91.8 | 
CN1CCN(c2ncc(-c3ccc(N4CCOCC4)cc3)n3ccnc23)CC1 [CBK091226] | 103 | 
O=[N+]([O-])c1ccccc1CN1CCC(N2CCCCC2)CC1 [CBK261852] | 88.7 | 
O=C(NC[C@H]1C[C@@H]2CC[N@]1C[C@@H]2CN1CCN(c2ccccn2)CC1)Nc1ccccc1 [CBK289114] | 106 | 
CCOC(=O)c1cnc2nc(N3CCOCC3)nn2c1N [CBK007371] | 96.2 | 
CC(=O)c1ccc(-c2cc(C(=O)NC3CCc4ccccc43)cnc2-c2ccc(Cl)cc2)s1 (centres unmarked) [CBK036762] | 96.9 | 
O=C(NCc1c(F)cccc1F)C1(c2ccccc2)CCCC1 [CBK149527] | 91.7 | 
CCOc1c(Br)cc(CNc2nc[nH]n2)cc1OC [CBK268009] | 104 | 
OCCNc1nc2cc(Cl)ccc2[nH]1 [CBK262295] | 101 | 
CCN(CC)C(=O)CN1C(=O)N2CCCN=C2c2ccccc21 [CBK284398] | 84.4 | 
CN(C)CCCNC(=O)C1CCN(c2nc3c(-c4ccccc4F)csc3c(=O)[nH]2)CC1 [CBK215438] | 93.7 | 
COc1ccc(C(=O)C2=C(O)C(=O)N(CCCN(C)C)C2c2ccc(Cl)c(Cl)c2)c(C)c1 (centres unmarked) [CBK264896] | 98.8 | 
CNCC1CCCN(C(=O)c2ccc(Oc3cccnc3)cc2)C1 (centres unmarked) [CBK304479] | 83.2 | 
Cc1cc(NS(=O)(=O)N2CCOCC2)no1 [CBK269894] | 89.9 | 

SMILES | viability at 28.5 h, 10 µM [%] | viability at 28.5 h, 10 µM (bulk resorufin, single well) [%]
O=C(Nc1ccnn1Cc1cc(Br)cs1)c1ccc2ncsc2c1 [CBK296713] | 105 | 
CC(C)[C@H]1CN(Cc2ccco2)CCN1Cc1ccccn1 [CBK284275] | 112 | 
Oc1ccc(C2N=C(c3ccccc3)N=C(c3ccccc3)N2)cc1 (centres unmarked) [CBK018755] | 95.4 | 
Cc1ccc(-c2noc(CSc3nnc(CCc4ccccc4)n3-c3ccccc3)n2)cc1 [CBK268493] | 93.1 | 
CCOC(=O)c1cnn2c(O)cc(CN3CCc4ccccc4C3)nc12 [CBK305679] | 97.2 | 
CCCCc1ccc(C(=O)CSc2nc(N)c(C#N)c(-c3ccc(O)cc3)c2C#N)cc1 [CBK261268] | 93.4 | 
O=S(=O)(Nc1ncc(Br)c2cccnc12)c1ccc(Oc2ccccc2)cc1 [CBK073886] | 105 | 
CN(C)Cc1cc(C[C@@H]2C[C@H](NC(=O)c3ccnc(Cl)c3)C2(C)C)no1 [CBK289311] | 89.6 | 
CCOC(=O)c1cn(CC)c2cc(N3CCN(C)CC3)c(F)cc2c1=O [CBK307141] | 92.9 | 
Nc1ncc(-c2ccccc2CO)nc1N1CCN(CCO)CC1 [CBK063404] | 100 | 
C=C(C)CNC(=O)c1ccc(C)nc1N1CCOCC1 [CBK076389] | 93.5 | 
COC(=O)C1=COC(C)C2CN3CCC4(NC(=O)c5c4ccc(OC)c5OC)C3CC12 (centres unmarked) [CBK003303] | 107 | 
Cn1cc(C(=O)N2CCCC3(C/C=C/COc4ccccc4C(=O)NCCNC3=O)C2)cn1 (centres unmarked) [CBK292102] | 96.4 | 
OC(CN1CCC(O)(c2ccc(C(F)(F)F)cc2)CC1)c1ccccc1 (centres unmarked) [CBK286323] | 102 | 
COc1cccc(C(=O)N2CCC(NC(=O)c3cc(F)ccc3F)CC2)c1 [CBK155026] | 99.4 | 
COC(=O)CCn1c(-c2ccccn2)cc2cccnc21 [CBK282634] | 89.8 | 
COc1nccnc1N1CCN(CC(N)=O)CC1 [CBK084219] | 98.4 | 
Brc1c(OCCNCCN2CCOCC2)ccc2ccccc12 [CBK268576G] | 115 | 
OC1CCN(c2ccc(-c3ccccc3)nn2)CC1 [CBK021753] | 83.9 | 
O=C(NCc1ccc(OC2CCNCC2)cc1)c1cccs1 [CBK036353T] | 89.8 | 
O=C(NCCC1SC(NC2CCCCCC2)=NC1=O)Nc1ccc(F)cc1F (centres unmarked) [CBK067469] | 99.7 | 
CCCCCn1c(=O)c(Cc2ccccc2)c(O)c2ccccc21 [CBK291233] | 93.2 | 
O=C(O)c1ccccc1SC1CC(=O)N(c2ccccc2)C1=O (centres unmarked) [CBK273885] | 94.6 | 

SMILES | viability at 28.5 h, 10 µM [%] | viability at 28.5 h, 10 µM (bulk resorufin, single well) [%]
CCCc1cnc(N2CCN(CC(=O)Nc3ccc(C(C)=O)cc3)CC2)nc1 [CBK086194] | 104 | 
COc1ccc2c(c1)cc(C(=O)N1CCCn3cncc3C1)n2C [CBK306516] | 96.1 | 
c1cnn(CC2CCCN2c2ncnc3sccc23)c1 (centres unmarked) [CBK304968] | 92.5 | 
CC(=O)NC[C@H]1CN(c2ccc3c(c2)CCN(C(=O)Cc2ccccc2)CC3)C(=O)O1 [CBK018499] | 111 | 
CC1=NN(c2ccccc2)C(=O)/C1=C\c1cn(CCC(=O)O)nc1-c1cc2ccccc2o1 [CBK265252] | 88.1 | 
N#CCCCN1CCC(Oc2nccnc2OCc2cccc(Br)c2)CC1 [CBK153631] | 99.1 | 
COCCNC(=O)N(CCC#N)C1CCCCC1 [CBK156358] | 97.3 | 
O=C(NCc1cccnc1)N1CCCCC1CO (centres unmarked) [CBK156169] | 105 | 
c1ccc2c(c1)nc(-c1cscn1)n2Cc1ccc(-c2nnn[nH]2)cc1 [CBK266979] | 96.6 | 
Clc1ccc(C2(N3CCC(N4CCOCC4)CC3)CC2)cc1 [CBK282722] | 90.8 | 
CCCc1[nH]nc(O)c1CCc1ccc(OC)cc1OC [CBK081123] | 95.5 | 
Cc1c(S(=O)(=O)Nc2ccnn2C)cnn1-c1ccccc1 [CBK062079] | 97.5 | 
COc1ccc(N2C(=O)/C(=C/c3cc(C)n(-c4ccc(N5CCOCC5)cc4)c3C)C(=O)NC2=S)cc1 [CBK263798] |  | 89.7
c1ccc(-c2cccc(-c3cc(N4CCN(CCN5CCCC5)CC4)ncn3)c2)cc1 [CBK091164] | 99.7 | 
O=C(Cc1cccs1)N1CCC2(CC1)OCc1ccccc1O2 [CBK061086] |  | 86.8
COc1cccc(NC(=O)c2ccc(-c3ccsc3)nc2NCC2CC2)c1 [CBK106227] | 90.5 | 
O=C(C1CC1)N1CC2CN(Cc3ccccc3)CC2C12CCOCC2 (centres unmarked) [CBK283055] | 103 | 
COC(=O)c1cccc(Cn2cc(/C=C\[N+](=O)[O-])c3ccccc32)c1 [CBK269020] | 93.4 | 
Cn1c(=O)c2c(ncn2CC(=O)Nc2ccc(Cl)cc2Cl)n(C)c1=O [CBK133227] | 86 | 
CN1CC[C@H](c2ccccc2)[C@@H]2[C@H]1CCCCN2C(=O)c1ccc(=O)oc1 [CBK285527] | 93.2 | 
O=C(CC1SC(NC2CCCCCC2)=NC1=O)NCc1c(F)cccc1Cl (centres unmarked) [CBK067656] | 89.7 | 
O=C(CCn1c(C(F)(F)F)cc2cccnc21)NCc1ccncc1 [CBK284841] | 90.5 | 
O=C(NNc1c(Cl)cccc1Cl)C(O)(c1ccccc1)c1ccccc1 [CBK262739] |  | 101

SMILES | viability at 28.5 h, 10 µM [%] | viability at 28.5 h, 10 µM (bulk resorufin, single well) [%]
NCC1CCN(c2nc(-c3cc(C(F)(F)F)cc(C(F)(F)F)c3)cnc2N)CC1 [CBK063960] | 87.3 | 
O=C(O)CSc1nc2ccc(NC(=O)COc3ccc(Cl)cc3)cc2s1 [CBK299773] | 84.6 | 
COC(=O)CCc1ccc(S(=O)(=O)N2CCCN(Cc3cccc(C(F)(F)F)c3)CC2)cc1 [CBK062983] | 100 | 
COc1ccc(C)cc1S(=O)(=O)N1CCCC(C(=O)NCc2ccccn2)C1 (centres unmarked) [CBK268503] | 102 | 
CCC(CC)C(=O)Nc1ccc([C@@H](O)[C@H]2COCC(=O)N2CC)cc1 [CBK289684] | 107 | 
CN1CCCN(c2cncc(-c3ccc(F)cc3F)n2)CC1 [CBK065858] | 97.9 | 
Cn1c(=O)n(CC(=O)O)c(=O)c2c1nc(Br)n2Cc1ccccc1 [CBK026617] | 94.8 | 
COc1cc(C2NC(C(=O)O)Cc3c2[nH]c2ccccc32)cc(OC)c1OC (centres unmarked) [CBK219193] | 101 | 
COc1ccc(C(NC(=O)c2cc(C)oc2CN2CCCC2)c2ccccc2)cc1 (centres unmarked) [CBK285573] | 118 | 
c1cncc(-c2cnn(-c3ccc4[nH]ccc4c3)n2)c1 [CBK112820] | 85.7 | 
Cc1nn(C(C)C)c(C)c1CN(CCCN(C)C)Cc1ccco1 [CBK282978] | 86.8 | 
CCc1nc(C)ccc1OCC(O)CNC(C)(C)C (centres unmarked) [CBK019698] | 94.3 | 
CC1(C)CC(=O)c2c(O)cc(OCC(=O)c3ccc(Cl)c(Cl)c3)cc2O1 [CBK267573] | 89.1 | 
COc1cc2c(cc1S(N)(=O)=O)C(=O)CCC2 [CBK010234] | 92.2 | 
CC(C)(C)OC(=O)NCc1ccc2cccc(OCCO)c2n1 [CBK000585] | 83.3 | 
Cc1ccccc1-c1nnc2n1CCCN2 [CBK200089] | 115 | 
C[S+]([O-])c1ccc(-c2ccc(CN(C3CC3)C3CCN(c4ncccn4)CC3)cn2)cc1 (centres unmarked) [CBK172877] | 90.2 | 
CCOC(=O)c1c(NC(=O)CSc2nnnn2C)sc2c1CCCC2 [CBK007332] | 103 | 
CC(C)(c1ccc(Oc2cccc(N)c2)cc1)c1ccc(Oc2cccc(N)c2)cc1 [CBK260958] | 109 | 
Cc1nc(N2CCN(C)CC2)ncc1C(=O)NCCSc1cnn[nH]1 [CBK306623] | 88.2 | 
